Measured values: article PMC10608985, “Retention Behavior of Anticancer Thiosemicarbazides in Biomimetic Chromatographic Systems and In Silico Calculations” (Molecules, 2023)

Tests used:
[1] = system: α1-acid glycoprotein (AGP); test: HPLC on immobilized AGP column, affinity and % plasma–protein binding; type: in vitro ADME, human; conditions: for log K AGP: binding equilibrium constant from calibration curve (Equation 9) of log k AGP; for fraction unbound: human, pH 7.4, % plasma–protein binding converted from log K AGP (Equation 10), read-out: %PPB AGP (converted); for log k AGP: retention on AGP column, 50 mM ammonium acetate pH 7.4 / propan-2-ol 85/15 (v/v)
Protocol: (§1) Measurements on HSA and AGP immobilized protein columns were carried out with […] isopropanol content in the aqueous mobile phase.
(§2) The standard calibration curve was used to predict log K values (K—binding equilibrium constant) of investigated compounds to HSA and AGP. Next, the log K values were converted into a percentage of plasma–protein binding (%PPB) of the compounds (Table 2). […] It is the lowest for compound 16 with -NO2 substituent, unsubstituted compound 1, and fluorine derivatives 2 and 9. In a group of […] derivatives in the same position of the phenyl ring, the %PPB to AGP increases with the increase in the atomic weight of the halogen atom and the lipophilicity of the molecule.
(§3) HPLC measurements were performed using a liquid chromatograph Knauer (Knauer, Berlin, Germany) with a dual pump, a 20 µL simple injection valve, and a UV–visible detector. The compounds were detected under UV light at 280 nm at room temperature. The retention time of an unretained solute (t0) was determined by the injection of a small amount of citric acid dissolved in water.
(§4) A human serum albumin (HSA) immobilized on the 5 µm silica gel column 100 × 3 mm (Chiralpac) and an α1-acid glycoprotein (AGP) immobilized on the 5 µm silica gel column 100 × 4 mm (Chiralpac) were used. The compounds were dissolved at 0.5 mg/mL concentration in 50% propan-2-ol and ammonium acetate solution (pH = 7.4) mixtures for HSA measurements. The mobile phase was composed of 50 mM ammonium acetate solution (pH = 7.4) and propan-2-ol at 85/15 (v/v) for AGP, respectively. The flow of mobile phases was 0.5 mL×min^−1. Log k values for the selected mobile phase were determined for all studied compounds and standard substances. The % protein plasma binding (% PPB) values were calculated from the calibration curve according to Valko et al..
(§5) Calibration of the protein columns: The column performance check and the calibration check were performed before measurements. The racemic mixture of warfarin was used for their performance evaluation. The following calibration set of drugs was applied: bromazepam, carbamazepine, diclofenac, nicardipine, nizatidine, piroxicam for HSA and bromazepam, chlorpromazine, imipramine, nicardipine, nizatidine, propranolol, and warfarin for AGP. The analytical standards were purchased from Sigma Aldrich Steinhen, Steinheim am Albuch, Germany). The drugs were dissolved at 0.5 mg/mL concentration in 50% propan-2-ol and ammonium acetate solution mixtures (pH = 7.4). The obtained log k values from HPLC were plotted against the log K values (K—binding equilibrium constant, log K—linearized PPB) based on the literature data for plasma–protein binding (%, PPB). The following relationships were obtained: log KHSA = 0.2513 (±0.0984) + 1.0525 (±0.1171) log k HSA(8) n=6, R=0.9761, R^2 = 0.9528, Radj2 = 0.9410, s = 0.1948 log KAGP = 0.1733 (±0.0574) + 0.8902 (±0.0787) log k AGP(9) n=7, R=0.9810, R^2 = 0.9623, Radj2 = 0.9548, s = 0.1113
(§6) Log K values were converted into %PPB using the following equation [15]:(10) %PPB=101×10^logK/1+10^logK

[2] = biological target: T1, human serum albumin (HSA) (Homo sapiens, UniProt P02768); test: HPLC on immobilized HSA column, affinity and % plasma–protein binding; type: in vitro ADME; conditions: for log K HSA: binding equilibrium constant from calibration curve (Equation 8) of log k HSA; for fraction unbound: human, pH 7.4, % plasma–protein binding converted from log K HSA (Equation 10), read-out: %PPB HSA (converted); for log k HSA: retention on HSA column, 50 mM ammonium acetate pH 7.4 / propan-2-ol 85/15 (v/v)
T1 construct: purchased Chiralpac
T1 sequence (P02768 25-609): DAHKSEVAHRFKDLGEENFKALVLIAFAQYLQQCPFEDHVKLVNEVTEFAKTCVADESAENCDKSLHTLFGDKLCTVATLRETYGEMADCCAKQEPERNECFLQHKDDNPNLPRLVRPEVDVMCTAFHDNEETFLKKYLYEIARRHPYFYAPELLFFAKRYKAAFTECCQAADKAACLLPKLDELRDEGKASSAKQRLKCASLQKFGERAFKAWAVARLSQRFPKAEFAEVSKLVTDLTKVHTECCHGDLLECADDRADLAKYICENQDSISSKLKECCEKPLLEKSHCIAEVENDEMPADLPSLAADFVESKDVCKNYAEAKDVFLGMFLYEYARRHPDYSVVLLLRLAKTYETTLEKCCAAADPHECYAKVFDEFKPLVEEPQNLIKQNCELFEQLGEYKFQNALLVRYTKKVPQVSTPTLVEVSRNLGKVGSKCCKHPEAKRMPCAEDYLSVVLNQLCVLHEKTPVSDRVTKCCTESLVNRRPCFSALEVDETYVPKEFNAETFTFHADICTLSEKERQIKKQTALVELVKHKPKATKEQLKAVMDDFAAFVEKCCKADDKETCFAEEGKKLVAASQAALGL
Protocol: as §1, §2, §3, §4, §5, §6

[3] = HPLC lipophilicity on IAM (immobilized artificial membrane, phosphatidylcholine) stationary phase; type: physicochemical; conditions: pH 7.4; for Log k IAM: Table S2; for log kw IAM: intercept, linear extrapolation to water; for log kw IAM / -S IAM: ACN/20 mM phosphate buffer; for -S IAM: slope of Soczewiński–Wachtmeister equation
Protocol: (§7) For the evaluation of the compounds the following stationary phases were used: C-18; biomimetic, IAM; cholesterol (Chol); immobilized proteins HSA and AGP. For the lipophilicity determination, MeOH (C-18, Chol) or ACN (IAM) were applied as the organic modifiers. The measurements were performed at pH 7.4 of the mobile phase. The regular changes in the retention of all solutes used as organic modifier content in the mobile phase on three studied stationary phases were found. It is expressed by the Soczewiński–Wachtmeister Equation (1):log k = log kw + S (% organic modifier)(1) where log kw—the intercept; S—the slope of regression curve. […] Log kw as well as S parameters are commonly applied as lipophilicity descriptors.
as §3
A Rexchrom IAM.PC.DD2 (12 μm, 100 × 4.6 mm, 300 Å) (Regis Technologies, Morton Grove, IL, USA) column was used as the stationary phase. The compounds were dissolved at a concentration of 0.5 mg × mL^−1 in MeOH. The mobile phases consisted of different volume fractions of ACN and 20 mM phosphate buffer; the aqueous phase maintained a pH = 7.4 (0.02 M KH2PO4, Na2HPO4 and 0.15 M KCl). The acetonitrile concentration ranged from 0.05 to 0.4 (v/v), depending on the structure of compound, at 0.05 intervals (Table S2 in the Supplementary Materials). The flow rate was 1 mL × min^−1.

[4] = HPLC lipophilicity on cholesterol (Chol) stationary phase; type: physicochemical; conditions: pH 7.4; for Log k Chol: Table S3; for log kw Chol: intercept, linear extrapolation to water; for log kw Chol / -S Chol: MeOH/20 mM acetate buffer; for -S Chol: slope of Soczewiński–Wachtmeister equation
Protocol: as §7, §3
Cogent 4 UDC Cholesterol (150 × 2.1 mm, 4 µm) MicroSolv Technology Corporation (Leland, NC, USA) column was used. The mobile phase consisted of different volume mixtures of MeOH as the organic modifier and 20 mM acetate buffer as the aqueous phase, to obtain pH = 7.4. The concentrations of the organic modifier were in the range from 0.3 to 0.8 (v/v) with step 0.05 or 0.1 (Table S3 in the Supplementary Materials). The flow rate was 0.35 mL × min^−1.

[5] = parameters: method as in Kozyra et al. [31]; conditions: MeOH/20 mM acetate buffer, pH 7.4, ref Kozyra et al. [31], cited from earlier work; for log kw C-18: intercept of Soczewiński–Wachtmeister equation (water as mobile phase); for -S C-18: slope of Soczewiński–Wachtmeister equation

Row | log K AGP [1] | fraction unbound [1] | log k AGP [1] | log K HSA [2] | log k HSA [2] | Log k IAM ([3]; ACN 0.15 v/v in mobile phase) | Log k IAM ([3]; ACN 0.20 v/v in mobile phase) | Log k IAM ([3]; ACN 0.25 v/v in mobile phase) | Log k IAM ([3]; ACN 0.30 v/v in mobile phase) | Log k IAM ([3]; ACN 0.35 v/v in mobile phase) | -S IAM [3] | Log k Chol ([4]; MeOH 0.40 v/v in mobile phase) | Log k Chol ([4]; MeOH 0.45 v/v in mobile phase) | Log k Chol ([4]; MeOH 0.50 v/v in mobile phase) | Log k Chol ([4]; MeOH 0.60 v/v in mobile phase) | Log k Chol ([4]; MeOH 0.80 v/v in mobile phase) | log kw Chol [4] | -S Chol [4] | Compound | log kw C-18 [5] | -S C-18 [5] | further results
1 | 0.5075 | 0.23 | 0.3754 | 1.9333 | 1.5981 | 1.009 | 0.673 | 0.368 | -0.038 | -0.210 | 6.0976 | 1.050 | 0.836 | 0.479 | 0.206 | -0.946 | 2.9842 | 4.8387 | O=C(COc1ccccc1)NNC(=S)Nc1ccc(Cl)cc1 [Compound 10] | 2.5914 | 4.5132 | fraction unbound [2]: 0.002; Log k IAM ([3]; ACN 0.10 v/v in mobile phase): 1.235; log kw IAM [3]: 1.8779; Log k Chol ([4]; MeOH 0.30 v/v in mobile phase): 1.475; Log k Chol ([4]; MeOH 0.35 v/v in mobile phase): 1.331; Log k Chol ([4]; MeOH 0.70 v/v in mobile phase): -0.396
2 | 0.6152 | 0.187 | 0.4964 | 1.3217 | 1.0170 | 0.982 | 0.647 | 0.333 | -0.082 | -0.247 | 6.3395 | 1.016 | 0.766 | 0.422 | 0.160 | -0.975 | 2.9670 | 4.8849 | O=C(COc1ccccc1)NNC(=S)Nc1cccc(Cl)c1 [Compound 6] | 2.7672 | 4.8532 | fraction unbound [2]: 0.036; Log k IAM ([3]; ACN 0.10 v/v in mobile phase): 1.270; log kw IAM [3]: 1.9101; Log k Chol ([4]; MeOH 0.35 v/v in mobile phase): 1.270
3 | 0.5886 | 0.197 | 0.4665 | 1.6879 | 1.3649 | 1.240 | 0.870 | 0.557 | 0.067 | -0.103 | 6.2034 | 1.246 | 0.978 | 0.627 | 0.400 | -1.016 | 3.4517 | 5.4505 | O=C(COc1ccccc1)NNC(=S)Nc1ccc(Cl)cc1Cl [Compound 13] | 3.2152 | 5.1803 | fraction unbound [2]: 0.01; Log k IAM ([3]; ACN 0.40 v/v in mobile phase): -0.430; Log k Chol ([4]; MeOH 0.70 v/v in mobile phase): -0.329
4 | 0.6707 | 0.168 | 0.5588 | 1.5037 | 1.1899 | 0.893 | 0.642 | 0.451 | -0.029 | -0.138 | 5.3942 | 0.747 | 0.519 | 0.244 | -0.037 | -0.938 | 2.3754 | 4.1215 | O=C(COc1ccccc1)NNC(=S)Nc1ccccc1I [Compound 4] | 2.4824 | 4.4182 | fraction unbound [2]: 0.021; Log k IAM ([3]; ACN 0.10 v/v in mobile phase): 1.158; log kw IAM [3]: 1.7099; Log k Chol ([4]; MeOH 0.30 v/v in mobile phase): 1.105; Log k Chol ([4]; MeOH 0.35 v/v in mobile phase): 0.974
5 | 0.6968 | 0.159 | 0.5881 | 2.2501 | 1.8991 | 1.120 | 0.777 | 0.413 | -0.038 | -0.196 | 6.8947 | 1.284 | 0.913 | 0.720 | 0.347 | -0.987 | 3.4508 | 5.4314 | O=C(COc1ccccc1)NNC(=S)Nc1cccc(Br)c1 [Compound 7] | 2.8451 | 4.8454 | log kw IAM [3]: 2.1389; Log k Chol ([4]; MeOH 0.70 v/v in mobile phase): -0.309
